One experiment has as its target T1, Human P2X3 receptor (Homo sapiens, UniProt P56373).
T1 construct: expressed in transfected cells; host or cells: HEK293 (stably expressing)
T1 sequence (P56373 1-397): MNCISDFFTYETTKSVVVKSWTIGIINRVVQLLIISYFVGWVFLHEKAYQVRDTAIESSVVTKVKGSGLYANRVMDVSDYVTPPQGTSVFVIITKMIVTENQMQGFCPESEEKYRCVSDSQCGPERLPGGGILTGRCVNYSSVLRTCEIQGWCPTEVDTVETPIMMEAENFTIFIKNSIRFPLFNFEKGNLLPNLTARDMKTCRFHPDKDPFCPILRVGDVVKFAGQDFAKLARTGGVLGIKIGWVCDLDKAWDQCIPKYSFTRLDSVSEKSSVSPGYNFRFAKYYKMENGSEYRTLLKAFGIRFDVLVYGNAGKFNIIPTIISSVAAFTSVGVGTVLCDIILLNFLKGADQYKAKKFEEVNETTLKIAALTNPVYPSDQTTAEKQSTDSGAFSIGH
Briefly: Inhibitory activity on human P2X3 receptor (FLIPR calcium 6 assay, HEK293-P2X3 cells, agonist α,β-MeATP). Type of experiment: cell-based. To be noted: HEK293-P2X3 stably expressing cell line, FLIPR Tetra. The protocol:
(§1) Biological Assay: Determination of the Inhibitory Activity of the Compounds on Human P2X3 and P2X2/3 Receptors
(§2) Cells were seeded into a poly-D-lysine-coated 384-well cell culture plate (Corning) at a density of 11,000 cells/well/25 μL of cell inoculation medium, and were cultured in a cell incubator overnight. On the day of the test, the calcium 6 dye was diluted to a 2× concentration with an assay buffer, 25 μL of the 2× calcium 6 dye was added to the 384-well cell culture plate, which was incubated at 37° C. for 2 hours, and then placed at room temperature for further use. The test compound and the agonist, α,β-MeATP were diluted to a 7× concentration with the assay buffer, 10 μL of the 7× test compound was added to the 384-well cell culture plate, which was incubated at room temperature for 15 minutes, and 10 μL of the 7× α,β-MeATP was transferred into the 384-well cell culture plate. […]

A further experiment concerns the target T2, Human P2X2/3 receptor (Homo sapiens, UniProt P56373+Q9UBL9).
T2 construct: expressed in transfected cells; host or cells: HEK293 (stably expressing)
T2 sequence (P56373 1-397): T1 sequence (P56373 1-397)
T2 sequence (Q9UBL9 1-471): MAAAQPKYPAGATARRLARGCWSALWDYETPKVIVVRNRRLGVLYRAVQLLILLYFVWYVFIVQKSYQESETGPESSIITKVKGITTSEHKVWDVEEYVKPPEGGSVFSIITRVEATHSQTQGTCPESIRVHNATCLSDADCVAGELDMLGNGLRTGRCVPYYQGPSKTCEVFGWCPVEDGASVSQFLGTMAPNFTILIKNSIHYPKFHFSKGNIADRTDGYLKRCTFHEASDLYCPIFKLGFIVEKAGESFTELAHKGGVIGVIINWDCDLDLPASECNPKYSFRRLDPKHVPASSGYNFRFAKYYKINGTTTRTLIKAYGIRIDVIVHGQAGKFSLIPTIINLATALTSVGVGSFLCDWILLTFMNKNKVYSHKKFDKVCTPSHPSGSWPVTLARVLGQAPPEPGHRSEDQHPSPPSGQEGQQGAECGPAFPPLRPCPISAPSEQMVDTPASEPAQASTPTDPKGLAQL
Briefly: Inhibitory activity on human P2X2/3 receptor (FLIPR calcium 6 assay, HEK293-P2X2/3 cells, agonist α,β-MeATP). To be noted: HEK293-P2X2/3 stably expressing cell line, FLIPR Tetra. The format is cell-based. The protocol: as §1, §2

By IC50 is commonly meant the concentration at which inhibition is half-maximal.

Structures are written as SMILES.

On to `CC(C)c1cnc2[nH]ccc2c1Oc1cnc(N)nc1N` [Compound C4, 5-((5-isopropyl-1H-pyrrolo[2,3-b]pyridin-4-yl)oxy)pyrimidin-2,4-diamine], for which the figures for the IC50 at Human P2X3 receptor and on Human P2X2/3 receptor were 86 nM and 80 nM, respectively.

Turning to `CC(C)c1cnc2c(c1Oc1cnc(N)nc1N)CCN2` [Compound C1, 5-((5-isopropyl-2,3-dihydro-1H-pyrrolo[2,3-b]pyridin-4-yl)oxy)pyrimidin-2,4-diamine], the figures for the IC50 at Human P2X3 receptor and on Human P2X2/3 receptor were 60.5 nM and 100 nM, respectively.

(Values after patent US12595261B2, “P2X3 and/or P2X2/3 receptor antagonist, pharmaceutical composition containing same, and use thereof” (BEIJING TIDE PHARMACEUTICAL CO., LTD., priority 2019, dated 2026).)
